This is an account of results in PubChem BioAssay (NCI).

Test systems include SF-539 CNS; SK-MEL-2 melanoma; UACC-62 melanoma; 786-0 renal; UACC-257 melanoma; SF-268 CNS; NCI-H23 lung; OVCAR-8 ovarian; EKVX NSCLC; HL-60(TB) leukemia.
What all share (experiment): NCI-60 cell line screen, 48 h

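Five compound concentrations were applied to cells in 96-well plates for 48 hours; endpoints were derived by simple linear interpolation of the resulting dose-response curve. Abbreviation: GI50, concentration required for 50% inhibition of growth. TGI denotes the concentration required for complete inhibition of growth.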

As for `Cc1cc(C)nc(NS(=O)(=O)c2ccc(NC(=O)c3cccc4cc5ccccc5nc34)cc2)n1`, the TGI with SF-539 CNS was 34 µM; in the test on SK-MEL-2 melanoma, 85.6 µM; in the test on UACC-62 melanoma, 79.3 µM; in the test with 786-0 renal, above 100 µM; with UACC-257 melanoma it was above 100 µM; with SF-268 CNS, above 100 µM. In addition, the values for the TGI in the test with NCI-H23 lung, with OVCAR-8 ovarian and in the test on EKVX NSCLC were 86.5 µM, above 100 µM and above 100 µM, respectively.

Regarding `CC1OC(O)C(O)C(O)C1O` (stereo not given), the TGI with SF-539 CNS, in the test on SK-MEL-2 melanoma, with UACC-62 melanoma, in the test on 786-0 renal, with UACC-257 melanoma and with SF-268 CNS was above 100 µM in each case. In addition, the TGI in the test on NCI-H23 lung, with OVCAR-8 ovarian and in the test with EKVX NSCLC was above 100 µM in each case.

As for `CC(C)(C)CC(C)(C)c1ccc(OCCOCCSC(=N)N)cc1`, the GI50 in the test on SF-539 CNS is 1.81 µM; with HL-60(TB) leukemia it was 1.79 µM; with SK-MEL-2 melanoma, 2.02 µM; with UACC-62 melanoma, 1.75 µM; with 786-0 renal it was 1.71 µM; in the test with UACC-257 melanoma it was 1.69 µM. In addition, the GI50 in the test with SF-268 CNS is 3.58 µM; with NCI-H23 lung, 2.85 µM; with OVCAR-8 ovarian it was 1.86 µM. Also, the TGI worked out at 3.31 µM in the test on SF-539 CNS; 3.58 µM in the test on HL-60(TB) leukemia; 3.49 µM in the test on SK-MEL-2 melanoma; 3.24 µM in the test with UACC-62 melanoma; 3.46 µM in the test on 786-0 renal; 3.18 µM in the test on UACC-257 melanoma. In addition, the TGI in the test on SF-268 CNS was found to be 12.5 µM; with NCI-H23 lung, 7.38 µM; in the test on OVCAR-8 ovarian, 3.56 µM.

As to `FC(F)(F)c1ccc(-c2cnc(Br)nc2NC2CCCCCC2)cc1`, the GI50 is above 100 µM in the test on SF-539 CNS; 31.4 µM in the test with HL-60(TB) leukemia; 42.6 µM in the test on UACC-62 melanoma; 91.2 µM with 786-0 renal; 63.4 µM in the test with UACC-257 melanoma; above 100 µM in the test on SF-268 CNS. Besides, the GI50 in the test with NCI-H23 lung is 32.9 µM; with OVCAR-8 ovarian, above 100 µM. For the same compound, the TGI in the test with SF-539 CNS, in the test on HL-60(TB) leukemia, in the test on UACC-62 melanoma, in the test with 786-0 renal, in the test with UACC-257 melanoma and with SF-268 CNS was above 100 µM in each case. Also, the TGI in the test on NCI-H23 lung and with OVCAR-8 ovarian was above 100 µM in each case.

On to `Cc1ccc(NC(=O)C(=O)Cc2nc3ccccc3o2)c(C)c1`, for which the TGI with SF-539 CNS, in the test on SK-MEL-2 melanoma, in the test on UACC-62 melanoma, in the test on 786-0 renal, in the test with UACC-257 melanoma and in the test on SF-268 CNS was above 100 µM each time. Also, the TGI in the test with NCI-H23 lung, in the test with OVCAR-8 ovarian and with EKVX NSCLC was above 100 µM each time.

On to `COC(=O)CCC1=C(C)c2cc3[n-]c(cc4nc(cc5[n-]c(cc1n2)c(CCC(=O)OC)c5C)C=C4C)cc3C.[Cd+2]`, for which the GI50 in the test with SF-539 CNS was 4.39 µM; with SK-MEL-2 melanoma it was 5.37 µM; with UACC-62 melanoma, 2 µM; with 786-0 renal, 11.3 µM; in the test on UACC-257 melanoma, 4.06 µM; with SF-268 CNS it was 3.14 µM. Further, the GI50 in the test on NCI-H23 lung was 3.03 µM; in the test on OVCAR-8 ovarian it was 9.95 µM; in the test on EKVX NSCLC it was 5.89 µM. The TGI came to 15.2 µM in the test on SF-539 CNS; 19.1 µM with SK-MEL-2 melanoma; 5.19 µM in the test with UACC-62 melanoma; 39.3 µM in the test on 786-0 renal; 18.3 µM in the test on UACC-257 melanoma; 14.9 µM with SF-268 CNS. In addition, the TGI is 16.7 µM with NCI-H23 lung, 75.4 µM with OVCAR-8 ovarian and above 52.2 µM in the test with EKVX NSCLC.

Regarding `CC(=O)OC1CCC2(C)C(=CC(C3C=C4CC(OC(C)=O)CCC4(C)C4=C3C3CC5OC6(CCC(C)CO6)C(C)C5C3(C)CC4)C3=C2CCC2(C)C3CC3OC4(CCC(C)CO4)C(C)C32)C1` (stereo not given), the TGI in the test on SK-MEL-2 melanoma was 33.9 µM; in the test on UACC-62 melanoma it was 26.1 µM; in the test on 786-0 renal it was 29.6 µM; in the test with UACC-257 melanoma, 21.9 µM; with SF-268 CNS, 23.5 µM; with NCI-H23 lung it was 27.9 µM. Also, the TGI in the test with OVCAR-8 ovarian was 23.1 µM; in the test with EKVX NSCLC it was 37.1 µM.

With `O=Nc1c(O)ccc2ccccc12`, the GI50 in the test on SF-539 CNS is 2.59 µM; in the test with HL-60(TB) leukemia, 2.42 µM; in the test on SK-MEL-2 melanoma it was 2.12 µM; in the test on UACC-62 melanoma, 1.86 µM; with 786-0 renal, 10.2 µM; in the test on UACC-257 melanoma it was 1.64 µM. The GI50 with SF-268 CNS is 3.04 µM; with OVCAR-8 ovarian it was 2.28 µM. For the same compound, the TGI in the test on SF-539 CNS turned out to be 6.29 µM; in the test with HL-60(TB) leukemia, 6.04 µM; in the test on SK-MEL-2 melanoma, 4.36 µM; in the test with UACC-62 melanoma, 3.83 µM; in the test with 786-0 renal it was 22 µM; in the test with UACC-257 melanoma, 3.2 µM. The results for the TGI with SF-268 CNS and in the test with OVCAR-8 ovarian were 10.6 µM and 7.04 µM, respectively.

Consider `O=C1/C(=C/c2cccs2)CCC/C1=C\c1cccs1`, for which the GI50 with SF-539 CNS is 59.2 µM; in the test with HL-60(TB) leukemia, above 100 µM; in the test with SK-MEL-2 melanoma it was 47.8 µM; in the test with UACC-62 melanoma, above 54.3 µM; with 786-0 renal it was 49.8 µM; in the test with UACC-257 melanoma, 79.1 µM. In addition, the GI50 is 33.5 µM in the test with SF-268 CNS, above 83.8 µM in the test with NCI-H23 lung and 51.6 µM with OVCAR-8 ovarian. For the same compound, the TGI with SF-539 CNS, with HL-60(TB) leukemia, with SK-MEL-2 melanoma, in the test with UACC-62 melanoma, in the test with 786-0 renal and in the test with UACC-257 melanoma was above 100 µM throughout. The TGI with SF-268 CNS, in the test with NCI-H23 lung and with OVCAR-8 ovarian was above 100 µM throughout.

For `COc1ccc(C2S/C(=C\c3ccc(OC)cc3OC)C(=O)N2NC(=O)Cc2ccccc2)cc1` (stereo not given), the TGI with SF-539 CNS, with HL-60(TB) leukemia, with SK-MEL-2 melanoma, with UACC-62 melanoma, in the test with 786-0 renal and in the test on UACC-257 melanoma was above 100 µM throughout. For the same compound, the TGI with SF-268 CNS, in the test with NCI-H23 lung and with OVCAR-8 ovarian was above 100 µM throughout.

Regarding `CCOC(=O)C(C[Si](C)(C)C)P(=O)(OCC)OCC` (stereo not given), the TGI in the test on SF-539 CNS, in the test with HL-60(TB) leukemia, in the test on UACC-62 melanoma, with 786-0 renal, in the test with UACC-257 melanoma and in the test on SF-268 CNS was above 100 µM in each case. Moreover, the TGI with NCI-H23 lung and in the test on OVCAR-8 ovarian was above 100 µM each time.

In the case of `COc1ccccc1-n1c(SCc2cc(OC)c(OC)c(OC)c2)nc2ccc(Cl)cc2c1=O`, the GI50 in the test with SF-539 CNS is 3.41 µM; in the test with HL-60(TB) leukemia, 2.99 µM; in the test with SK-MEL-2 melanoma, 4.88 µM; with UACC-62 melanoma it was 3.04 µM; in the test with 786-0 renal it was 4.46 µM; with UACC-257 melanoma it was 5.7 µM. The results for the GI50 with SF-268 CNS, in the test on NCI-H23 lung and with OVCAR-8 ovarian were 23.1 µM, 5.9 µM and 8.86 µM, respectively. Further, the TGI is 19.6 µM in the test on SF-539 CNS; 18.7 µM in the test with HL-60(TB) leukemia; above 100 µM with SK-MEL-2 melanoma; above 100 µM with UACC-62 melanoma; above 100 µM with 786-0 renal; above 100 µM in the test on UACC-257 melanoma. Moreover, the TGI with SF-268 CNS, in the test on NCI-H23 lung and with OVCAR-8 ovarian was above 100 µM each time.

For `CC(=O)Nc1ccc(-c2nnc(SCC(=O)Nc3ccc(C)cc3)o2)cc1`, the TGI in the test on SF-539 CNS was found to be 27.3 µM; in the test on HL-60(TB) leukemia, 64.4 µM; in the test with SK-MEL-2 melanoma, 34.4 µM; with UACC-62 melanoma it was 30.7 µM; in the test on 786-0 renal it was 33.4 µM; with UACC-257 melanoma it was 42 µM. The values for the TGI with SF-268 CNS, with NCI-H23 lung and in the test with OVCAR-8 ovarian were 44.2 µM, 29.6 µM and 70.8 µM, respectively.

In the case of `COc1ccc(/C=C2\N=C3SC=C(N)N3C2=O)cc1`, the GI50 was 1.5 µM in the test with SF-539 CNS; 1.12 µM in the test with HL-60(TB) leukemia; 1.02 µM in the test on SK-MEL-2 melanoma; 1.07 µM with UACC-62 melanoma; 1.28 µM with 786-0 renal; 1.06 µM in the test on UACC-257 melanoma. In addition, the GI50 is 1.82 µM in the test on SF-268 CNS, 1.67 µM with NCI-H23 lung and 1.44 µM in the test on OVCAR-8 ovarian. Further, the TGI in the test with SF-539 CNS was found to be 4.07 µM; with HL-60(TB) leukemia, 4.6 µM; in the test with SK-MEL-2 melanoma it was 2.75 µM; in the test on UACC-62 melanoma it was 2.76 µM; in the test with 786-0 renal, 2.7 µM; in the test on UACC-257 melanoma, 5.33 µM. In addition, the TGI was 7.29 µM with SF-268 CNS, 8.47 µM in the test on NCI-H23 lung and 10.4 µM with OVCAR-8 ovarian.

In the case of `CCOC(=O)C12CC1(C(=O)OCC)C1CCC2C1` (stereo not given), the TGI in the test on HL-60(TB) leukemia, in the test on UACC-62 melanoma, in the test on 786-0 renal, in the test with UACC-257 melanoma, in the test on SF-268 CNS and in the test on NCI-H23 lung was above 100 µM each time. For the same compound, the TGI in the test with OVCAR-8 ovarian was above 100 µM.

For the compound `CCC1(OC(C)=O)C(=O)OCc2c1cc1n(c2=O)Cc2cc3ccccc3nc2-1` (stereo not given), the TGI with SF-539 CNS is 5.23 µM; with SK-MEL-2 melanoma it was above 100 µM; in the test with 786-0 renal, above 31.1 µM; in the test with UACC-257 melanoma it was above 100 µM; with SF-268 CNS it was above 100 µM; in the test with NCI-H23 lung, 4.6 µM. Besides, the TGI with OVCAR-8 ovarian and in the test with EKVX NSCLC was above 100 µM in each case.

In the case of `C=C(C)C1/C=C(/C(C)C)CC[C@]2(C)O[C@@H]2CC[C@H](C)CC1=O` (stereo not given in full), the GI50 in the test with SK-MEL-2 melanoma was above 100 µM; with UACC-62 melanoma it was 80.2 µM; in the test on 786-0 renal it was 32.4 µM; with SF-268 CNS it was above 100 µM; in the test on NCI-H23 lung, 87 µM; in the test on OVCAR-8 ovarian, 58.3 µM. The TGI in the test with SK-MEL-2 melanoma, in the test on UACC-62 melanoma, with 786-0 renal, with SF-268 CNS, in the test on NCI-H23 lung and with OVCAR-8 ovarian was above 100 µM each time.
